Experimental data as given in ChEMBL document CHEMBL3244201, “Synthesis and specific pressor activity of [1-aspartic acid,5-valine,9-serine]angiotensin I ("fowl angiotensin I")” (1977).

Experiments:
Assay type in all cases: functional
Rattus norvegicus [1] = species: Rattus norvegicus; assay: Pressor activity in rat assessed as weight basis relative to mammalian [Ile5]angiotensin 2
Rattus norvegicus [2] = species: Rattus norvegicus; assay: Pressor activity in rat assessed as weight basis relative to mammalian [Val5]angiotensin 2
Rattus norvegicus [3] = species: Rattus norvegicus; assay: Pressor activity in rat assessed as weight basis relative to mammalian [Ile5]angiotensin 1
Rattus norvegicus [4] = species: Rattus norvegicus; assay: Pressor activity in rat assessed as molar basis relative to mammalian [Ile5]angiotensin 1
Rattus norvegicus [5] = species: Rattus norvegicus; assay: Pressor activity in rat assessed as weight basis relative to mammalian [Val5]angiotensin 1
Rattus norvegicus [6] = species: Rattus norvegicus; assay: Pressor activity in rat assessed as molar basis relative to mammalian [Val5]angiotensin 1
Rattus norvegicus [7] = species: Rattus norvegicus; assay: Pressor activity in rat assessed as molar basis relative to mammalian [Ile5]angiotensin 2
Rattus norvegicus [8] = species: Rattus norvegicus; assay: Pressor activity in rat assessed as molar basis relative to mammalian [Val5]angiotensin 2
Rattus norvegicus [9] = species: Rattus norvegicus; assay: Pressor activity in ganglion-blocked vagotomized rat assessed as weight basis relative to mammalian [Ile5]angiotensin 2

Molecule	Activity (Rattus norvegicus [1]) [%]	Activity (Rattus norvegicus [2]) [%]	Activity (Rattus norvegicus [3]) [%]	Activity (Rattus norvegicus [4]) [%]	Activity (Rattus norvegicus [5]) [%]	Activity (Rattus norvegicus [6]) [%]	Activity (Rattus norvegicus [7]) [%]	Activity (Rattus norvegicus [8]) [%]	Activity (Rattus norvegicus [9]) [%]
CC[C@H](C)[C@H](NC(=O)[C@H](Cc1ccc(O)cc1)NC(=O)[C@@H](NC(=O)[C@H](CCCNC(=N)N)NC(=O)[C@@H](N)CC(=O)O)C(C)C)C(=O)N[C@@H](Cc1cnc[nH]1)C(=O)N1CCC[C@H]1C(=O)N[C@@H](Cc1ccccc1)C(=O)O [ANGIOTENSIN II]	100	73.5							
H-DRVYIHPFHL-OH	58.6	43.1							
H-DRVYVHPF-OH [[Val5] - ANGIOTENSIN II]	136	100							
H-DRVYVHPFHL-OH	51.5	37.8							
H-DRVYVHPFSL-OH	94.1	69.2	160.4	157	182.8	180.8	114.4	85.1	91.2
